# According to PMC10252614 (International Journal of Molecular Sciences, 2023):
# How the values were obtained:
# [1] = biological target: T1, hMAO-B (Homo sapiens, UniProt P27338); assay: hMAO-B inhibition mechanism: dialysis reversibility and kinetics; assay type: biochemical; conditions: for mode of hMAO-B inhibition: non-linear regression according to Michaelis–Menten
# T1 construct: purchased Merck (Prague, Czech Republic)
# T1 sequence (P27338 1-520): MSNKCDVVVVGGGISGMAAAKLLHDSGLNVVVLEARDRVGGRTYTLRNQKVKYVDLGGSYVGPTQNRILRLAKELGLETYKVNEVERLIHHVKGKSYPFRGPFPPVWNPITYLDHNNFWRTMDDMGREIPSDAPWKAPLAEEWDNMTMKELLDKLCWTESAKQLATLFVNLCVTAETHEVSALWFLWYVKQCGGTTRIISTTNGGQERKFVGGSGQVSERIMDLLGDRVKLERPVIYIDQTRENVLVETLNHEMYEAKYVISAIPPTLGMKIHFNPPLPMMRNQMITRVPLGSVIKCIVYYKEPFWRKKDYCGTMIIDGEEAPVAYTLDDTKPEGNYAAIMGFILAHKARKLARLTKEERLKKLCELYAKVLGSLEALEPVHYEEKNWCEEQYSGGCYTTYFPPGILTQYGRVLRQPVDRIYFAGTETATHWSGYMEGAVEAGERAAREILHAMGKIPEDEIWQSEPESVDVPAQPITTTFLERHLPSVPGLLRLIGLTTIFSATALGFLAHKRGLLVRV
# Procedure: (§1) The MAOs were subsequently incubated with selected compounds at different concentrations and evaluated by non-linear regression according to Michaelis–Menten (Figure 5).
# (§2) Inhibition mechanism was determined by non-linear regression and the double reciprocal method by Lineweaver–Burk using GraphPad Prism 8.2 software. […] The recovery of enzyme activity was determined using the above-mentioned protocol.
# [2] = biological target: T2, hMAO-A (Homo sapiens, UniProt P21397); assay: hMAO-A inhibition mechanism: dialysis reversibility and kinetics; assay type: biochemical; conditions: non-linear regression according to Michaelis–Menten
# T2 construct: purchased Merck (Prague, Czech Republic)
# T2 sequence (P21397 1-527): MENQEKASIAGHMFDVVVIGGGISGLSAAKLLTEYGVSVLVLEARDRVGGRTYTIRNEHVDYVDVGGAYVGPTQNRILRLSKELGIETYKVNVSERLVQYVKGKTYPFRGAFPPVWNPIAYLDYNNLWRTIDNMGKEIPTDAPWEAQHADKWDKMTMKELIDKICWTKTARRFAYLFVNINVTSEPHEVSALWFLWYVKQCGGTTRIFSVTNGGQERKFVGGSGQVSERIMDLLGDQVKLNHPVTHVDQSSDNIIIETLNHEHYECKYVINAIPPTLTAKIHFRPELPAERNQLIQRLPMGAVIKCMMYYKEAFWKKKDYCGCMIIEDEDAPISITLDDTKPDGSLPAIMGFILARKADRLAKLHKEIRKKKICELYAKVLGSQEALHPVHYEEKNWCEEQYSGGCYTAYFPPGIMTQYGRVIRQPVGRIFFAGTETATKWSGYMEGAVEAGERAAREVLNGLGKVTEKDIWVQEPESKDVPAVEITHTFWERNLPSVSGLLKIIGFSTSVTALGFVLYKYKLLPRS
# Procedure: as §1, §2
# [3] = tested on: SH-SY5Y cells; assay: glutathione levels, monochlorobimane assay; assay type: cell-based, human; conditions: 10 µM, 24 h
# Procedure: Next, we tested the effects of the compounds on intracellular dehydrogenase activity and glutathione levels. […] To evaluate the effects of the compounds on cells, we measured total intracellular dehydrogenase activity as a marker of cellular viability and glutathione levels for evaluation of oxidative stress (Table 6).
# The glutathione (GSH) levels were measured using an optimized monochlorobimane assay. The working solutions of monochlorobimane (MCB, Merck, Rahway, NJ, USA) were prepared fresh at the time of analysis by dilution in Dulbecco’s phosphate buffer (PBS; pH 7; 1 µM, Merck, USA) and tempered at 37 °C for 30 min. After the treatment of cells with I-6e (100 µM), I-6h (100 µM), II-6e (100 µM), II-6h (10–100 µM) and III-6a (10–100 µM), 20 μL of the MCB solution was added to the cells in 96-well microplates and the measurement started immediately (final concentration of MCB in a well was 40 μmol/L) The fluorescence intensity (Ex/Em = 394/490 nm) was measured kinetically for 20 min using SPARK microplate reader (Tecan, Austria). The fluorescence was expressed as the slope of a fluorescence change over time. The GSH levels were expressed as the percentage relative to the GSH levels in control cells (control = 100%).
# [4] = tested on: SH-SY5Y cells; assay: intracellular ATP, luciferase luminescence assay; assay type: cell-based, human; conditions: 100 µM, 24 h
# Procedure: Thus, SH-SY5Y cells were incubated with II-6h and III-6a (10 and 100 µM) for 24 h. After the treatment, dehydrogenase activity, glutathione levels, nuclear condensation and fragmentation, and ATP levels were measured (Figure 7). […] The decrease in dehydrogenase activity was found in cells treated with 100 µM II-6h (p < 0.001).
# The quantification of intracellular ATP was performed using luciferase luminescence assay. After cell treatment with II-6h and III-6a (10–100 µM), the culture medium was replaced with 100 µL of cold water for cell lysis, incubated for 5 min and centrifuged (4800× g; 5 min; 4 °C). To detect intracellular ATP concentration, 90 µL of the reaction solution was added to 10 µL of a lysate. The reaction solution included 20× reaction buffer (500 mM Tricine buffer, pH 7.8; 10 mM MgSO4, 2 mM Na2EDTA), 5 mg/mL luciferase; 10 mM D-luciferin; 0.1 M DTT and dH2O. Luminometric measurement was performed at Em = 550 nm using SPARK microplate reader (Tecan, Grödig, Austria). The intracellular ATP levels were expressed as the percentage of total ATP level relative to that in the control cells (control = 100%) as mean ± SEM.
structure (smiles),measurement,setting,value
"C#CCN(C)c1nc(NC2CCCCC2)c2ccccc2n1 [I-6h, N4-cyclohexyl-N2-methyl-N2-(prop-2-yn-1-yl)quinazoline-2,4-diamine]",mode of hMAO-B inhibition,[1],mixed mode inhibition
same,mode of hMAO-A inhibition,[2],mixed mode inhibition
"C#CCN(C)c1nc(N)c2cc(OC)ccc2n1 [III-6a, 6-methoxy-N2-methyl-N2-(prop-2-yn-1-yl)quinazoline-2,4-diamine]",change in glutathione levels (in words),[3],no significant changes
same,mode of hMAO-A inhibition,[2],mixed mode inhibition
"C#CCN(C)c1nc(NC2CCCCC2)c2ccc(Cl)cc2n1 [II-6h, 7-chloro-N4-cyclohexyl-N2-methyl-N2-(prop-2-yn-1-yl)quinazoline-2,4-diamine]",mode of hMAO-B inhibition,[1],mixed mode inhibition
same,reversible/irreversible inhibitory action towards hMAO-B,[1]; recovery of enzyme activity after dialysis,only a partial recovery
same,intracellular ATP levels (in words),[4],partial exhaustion of ATP
same,change in glutathione levels (in words),[3],no significant changes
